Measurements published in patent US10807970B2 (priority 2016, dated 2020).

Biological target: human σ1 receptor (Homo sapiens, UniProt Q99720)
Experiment: Human σ1 receptor radioligand assay ([3H](+)-pentazocine, transfected HEK-293 membranes)
Format: binding
Design: μ and σ1 dual binding: key to the marks not given beside the values
Settings: one class symbol for both Ki-σ1 (human σ1 receptor, A1) and Ki-μ (human μ-opioid receptor, A2)
Summary of the method: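 Membranes from HEK-293 cells transfected with human σ1 receptor (7 μg) incubated with 5 nM [3H](+)-pentazocine in 50 mM Tris-HCl pH 8, 120 min at 37° C. Non-specific binding defined with 10 μM haloperidol. Bound radioligand separated by filtration, washed with ice-cold 10 mM Tris-HCl pH 7.4, and counted by scintillation.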

Sequence of human σ1 receptor (Q99720 whole entry): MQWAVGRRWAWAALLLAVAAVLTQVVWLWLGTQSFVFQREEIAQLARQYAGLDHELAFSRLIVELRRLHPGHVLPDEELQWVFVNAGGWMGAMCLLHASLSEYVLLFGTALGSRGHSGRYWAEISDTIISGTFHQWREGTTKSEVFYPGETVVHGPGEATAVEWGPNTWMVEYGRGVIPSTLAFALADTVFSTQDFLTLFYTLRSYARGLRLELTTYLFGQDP

| Structure (SMILES) | μ and σ1 dual binding |
| --- | --- |
| CC1(C)CC(C(O)c2ccccn2)(N2CCN(Cc3ccccc3)CC2)CCO1 (stereo not shown) [Example 129, (4-(4-benzylpiperazin-1-yl)-2,2-dimethyltetrahydro-2H-pyran-4-yl)(pyridin-2-yl)methanol] | ++ |
| OC(c1ccccn1)C1(C2CCN(Cc3ccccc3)CC2)CCOCC1 (stereo not shown) [Example 130, (4-(1-benzylpiperidin-4-yl)tetrahydro-2H-pyran-4-yl)(pyridin-2-yl)methanol] | ++ |
| CC1(C)CC(C2CCN(Cc3ccccc3)CC2)(C(O)c2ccccn2)CCO1 (stereo not shown) [Example 131, (4-(1-benzylpiperidin-4-yl)-2,2-dimethyltetrahydro-2H-pyran-4-yl)(pyridin-2-yl)methanol] | ++ |
| CC(C)OCCN1CCN([C@@]2(C(=O)c3ccccn3)CCOC(C)(C)C2)CC1 [Example 134, (S)-(4-(4-(2-isopropoxyethyl)piperazin-1-yl)-2,2-dimethyltetrahydro-2H-pyran-4-yl)(pyridin-2-yl)methanone] | ++ |
| CC(C)COCCN1CCN([C@@]2(C(=O)c3ccccn3)CCOC(C)(C)C2)CC1 [Example 136, (S)-(4-(4-(2-isobutoxyethyl)piperazin-1-yl)-2,2-dimethyltetrahydro-2H-pyran-4-yl)(pyridin-2-yl)methanone] | ++ |
| CN(Cc1ccccc1)[C@H]1CCN([C@]2(C(=O)c3ccccn3)CCOC(C)(C)C2)C1 [Example 141, ((R)-4-((S)-3-(benzyl(methyl)amino)pyrrolidin-1-yl)-2,2-dimethyltetrahydro-2H-pyran-4-yl)(pyridin-2-yl)methanone] | ++ |
| CN(Cc1ccccc1)[C@@H]1CCN([C@@]2(C(=O)c3ccccn3)CCOC(C)(C)C2)C1 [Example 143] | ++ |
| CC(C)OCCN(C)[C@H]1CCN([C@]2(C(=O)c3ccccn3)CCOC(C)(C)C2)C1 [Example 146, ((R)-4-((S)-3-((2-isopropoxyethyl)(methyl)amino)pyrrolidin-1-yl)-2,2-dimethyltetrahydro-2H-pyran-4-yl)(pyridin-2-yl)methanone] | ++ |
| CC(C)OCCN(C)[C@H]1CCN([C@@]2(C(=O)c3ccccn3)CCOC(C)(C)C2)C1 [Example 147, ((S)-4-((S)-3-((2-isopropoxyethyl)(methyl)amino)pyrrolidin-1-yl)-2,2-dimethyltetrahydro-2H-pyran-4-yl)(pyridin-2-yl)methanone] | ++ |
| CC(C)CCN(C)[C@@H]1CCN([C@]2(C(=O)c3ccccn3)CCOC(C)(C)C2)C1 [Example 149, ((R)-4-((R)-3-(isopentyl(methyl)amino)pyrrolidin-1-yl)-2,2-dimethyltetrahydro-2H-pyran-4-yl)(pyridin-2-yl)methanone] | ++ |
| C[C@H]1C[C@@](C(=O)c2ccccn2)(C2CCN(Cc3ccccc3)CC2)CCO1 [Example 152] | ++ |
| C[C@H]1C[C@@](C(=O)c2ccccn2)(N2CCN(Cc3ccccc3)CC2)CCO1 [Example 155, ((2S,4S)-4-(4-benzylpiperazin-1-yl)-2-methyltetrahydro-2H-pyran-4-yl)(pyridin-2-yl)methanone] | ++ |
| CC1(N2CCN(Cc3ccccc3)CC2)CCOCC1 [Example 156, 1-Benzyl-4-(4-methyltetrahydro-2H-pyran-4-yl)piperazine] | ++ |
| CC[C@@]1(N2CCN(CCOC(C)C)CC2)CCO[C@@H](C)C1 [Example 158, 1-((2S,4R)-4-ethyl-2-methyltetrahydro-2H-pyran-4-yl)-4-(2-isopropoxyethyl)piperazine] | ++ |
| CC[C@]1(N2CCN(CCC(C)C)CC2)CCO[C@@H](C)C1 [Example 159, 1-((2S,4S)-4-ethyl-2-methyltetrahydro-2H-pyran-4-yl)-4-isopentylpiperazine] | ++ |
| CC[C@@]1(N2CCN(CCC(C)C)CC2)CCO[C@@H](C)C1 [Example 160, 1-((2S,4R)-4-ethyl-2-methyltetrahydro-2H-pyran-4-yl)-4-isopentylpiperazine] | ++ |
| CC(C)CCN1CCN([C@@]2(C)CCO[C@@H](C)C2)CC1 [Example 161, 1-((2S,4S)-2,4-dimethyltetrahydro-2H-pyran-4-yl)-4-isopentylpiperazine] | ++ |
| CC(C)CCN1CCN([C@]2(C)CCO[C@@H](C)C2)CC1 [Example 162, 1-((2S,4R)-2,4-dimethyltetrahydro-2H-pyran-4-yl)-4-isopentylpiperazine] | ++ |
| CC[C@]1(N2CCN(Cc3ccccc3)CC2)CCO[C@@H](C)C1 [Example 163, 1-benzyl-4-((2S,4S)-4-ethyl-2-methyltetrahydro-2H-pyran-4-yl)piperazine] | ++ |

Same assay, conditions: one class symbol for both Ki-σ1 (human σ1 receptor, A1) and Ki-μ (human μ-opioid receptor, A2); read-out: μ and σ1 dual binding

| Structure (SMILES) | Ki [nM] |
| --- | --- |
| CC1(C)CC(C(=O)c2ccccn2)(N2CCN(CCC(F)(F)F)CC2)CCO1 (stereo not shown) [Example 127, (2,2-dimethyl-4-(4-(3,3,3-trifluoropropyl)piperazin-1-yl)tetrahydro-2H-pyran-4-yl)(pyridin-2-yl)methanone] | > 500 |
| CC(C)OCCN1CCN([C@]2(C(=O)c3ccccn3)CCOC(C)(C)C2)CC1 [Example 135, (R)-(4-(4-(2-isopropoxyethyl)piperazin-1-yl)-2,2-dimethyltetrahydro-2H-pyran-4-yl)(pyridin-2-yl)methanone] | < 500 |
| CC(C)OCCN1CCN([C@]2(C(=O)c3ccccn3)CCOC(C)(C)C2)CC1 [Example 139, (R)-(4-(4-(2-isopropoxyethyl)piperazin-1-yl)-2,2-dimethyltetrahydro-2H-pyran-4-yl)(pyridin-2-yl)methanone] | > 500 |
| CC(C)OCCN(C)[C@@H]1CCN([C@]2(C(=O)c3ccccn3)CCOC(C)(C)C2)C1 [Example 144, ((R)-4-((R)-3-((2-isopropoxyethyl)(methyl)amino)pyrrolidin-1-yl)-2,2-dimethyltetrahydro-2H-pyran-4-yl)(pyridin-2-yl)methanone] | < 500 |
| CC(C)OCCN(C)[C@@H]1CCN([C@@]2(C(=O)c3ccccn3)CCOC(C)(C)C2)C1 [Example 145, ((S)-4-((R)-3-((2-isopropoxyethyl)(methyl)amino)pyrrolidin-1-yl)-2,2-dimethyltetrahydro-2H-pyran-4-yl)(pyridin-2-yl)methanone] | > 500 |
| C[C@@H]1C[C@](C(=O)c2ccccn2)(N2CCN(Cc3ccccc3)CC2)CCO1 [Example 154, ((2R,4R)-4-(4-benzylpiperazin-1-yl)-2-methyltetrahydro-2H-pyran-4-yl)(pyridin-2-yl)methanone] | < 500 |

Same assay, conditions: μ and σ1 dual binding, one class symbol for both Ki-σ1 (human σ1 receptor, A1) and Ki-μ (human μ-opioid receptor, A2)

| Structure (SMILES) | Ki [nM] |
| --- | --- |
| CC1(C)CC(C(=O)c2ccccn2)(N2CCN(CCC3CC3)CC2)CCO1 (stereo not shown) [Example 128, (4-(4-(2-cyclopropylethyl)piperazin-1-yl)-2,2-dimethyltetrahydro-2H-pyran-4-yl)(pyridin-2-yl)methanone] | < 500 |
| CC(C)CCN1CCN([C@@]2(C(=O)c3ccccn3)CCOC(C)(C)C2)CC1 [Example 132, (S)-(4-(4-isopentylpiperazin-1-yl)-2,2-dimethyltetrahydro-2H-pyran-4-yl)(pyridin-2-yl)methanone] | < 500 |
| CC(C)CCN1CCN([C@]2(C(=O)c3ccccn3)CCOC(C)(C)C2)CC1 [Example 133, (R)-(4-(4-isopentylpiperazin-1-yl)-2,2-dimethyltetrahydro-2H-pyran-4-yl)(pyridin-2-yl)methanone] | < 100 |
| CC(C)COCCN1CCN([C@]2(C(=O)c3ccccn3)CCOC(C)(C)C2)CC1 [Example 137, (R)-(4-(4-(2-isobutoxyethyl)piperazin-1-yl)-2,2-dimethyltetrahydro-2H-pyran-4-yl)(pyridin-2-yl)methanone] | < 500 |
| CN(Cc1ccccc1)[C@H]1CCN(C2(C(=O)c3ccccn3)CCOC(C)(C)C2)C1 (stereo partly drawn) [Example 138, (4-((S)-3-(benzyl(methyl)amino)pyrrolidin-1-yl)-2,2-dimethyltetrahydro-2H-pyran-4-yl)(pyridin-2-yl)methanone] | > 500 |
| CN(Cc1ccccc1)[C@H]1CCN([C@@]2(C(=O)c3ccccn3)CCOC(C)(C)C2)C1 [Example 140, ((S)-4-((S)-3-(benzyl(methyl)amino)pyrrolidin-1-yl)-2,2-dimethyltetrahydro-2H-pyran-4-yl)(pyridin-2-yl)methanone] | < 500 |
| CN(Cc1ccccc1)[C@@H]1CCN([C@]2(C(=O)c3ccccn3)CCOC(C)(C)C2)C1 [Example 142] | < 100 |
| CC(C)CCN(C)[C@@H]1CCN([C@@]2(C(=O)c3ccccn3)CCOC(C)(C)C2)C1 [Example 148, ((S)-4-((R)-3-(isopentyl(methyl)amino)pyrrolidin-1-yl)-2,2-dimethyltetrahydro-2H-pyran-4-yl)(pyridin-2-yl)methanone] | < 500 |
| CC(C)CCN(C)[C@H]1CCN([C@]2(C(=O)c3ccccn3)CCOC(C)(C)C2)C1 [Example 150, ((R)-4-((S)-3-(isopentyl(methyl)amino)pyrrolidin-1-yl)-2,2-dimethyltetrahydro-2H-pyran-4-yl)(pyridin-2-yl)methanone] | < 500 |
| CC(C)CCN(C)[C@H]1CCN([C@@]2(C(=O)c3ccccn3)CCOC(C)(C)C2)C1 [Example 151, ((S)-4-((S)-3-(isopentyl(methyl)amino)pyrrolidin-1-yl)-2,2-dimethyltetrahydro-2H-pyran-4-yl)(pyridin-2-yl)methanone] | < 500 |
| C[C@H]1C[C@](C(=O)c2ccccn2)(C2CCN(Cc3ccccc3)CC2)CCO1 [Example 153] | < 500 |
| CC[C@]1(N2CCN(CCOC(C)C)CC2)CCO[C@@H](C)C1 [Example 157, 1-((2S,4S)-4-ethyl-2-methyltetrahydro-2H-pyran-4-yl)-4-(2-isopropoxyethyl)piperazine] | < 100 |
